According to BindingDB's records for doi:10.1016/0028-3908(96)84644-2 (Abbott Laboratories, 1996):
“And” between values parts separate entries of the source, which are not always exact repeats. Identical values can stand only once.

What was measured:
[1] = biological target: Acetylcholine receptor subunit alpha (Rattus norvegicus, UniProt P25108)
[2] = biological target: Sodium-dependent noradrenaline transporter (Homo sapiens, UniProt P23975)
Beta-nerve growth factor = Beta-nerve growth factor (Homo sapiens, UniProt P01138)
Glutamate receptor 3 = Glutamate receptor 3 (Homo sapiens, UniProt P42263)
Adenosine receptor A2a = Adenosine receptor A2a (Homo sapiens, UniProt P29274)
Apamin = Apamin (Apis mellifera, UniProt P01500)
D(2) dopamine receptor = D(2) dopamine receptor (Homo sapiens, UniProt P14416)
[3] = biological target: Gamma-aminobutyric acid type B receptor subunit 1 (UniProt Q9Z0U4)
[4] = biological target: Gamma-aminobutyric acid receptor subunit alpha-1 (Homo sapiens, UniProt P14867)
[5] = biological target: Putative choline uptake ABC transporter permease protein (Rhizobium meliloti (strain 1021), UniProt Q92V96)
[6] = biological target: Neuronal acetylcholine receptor subunit alpha-7 (Homo sapiens, UniProt P36544)
[7] = biological target: Kappa-type opioid receptor (Homo sapiens, UniProt P41145)
Mu-type opioid receptor = Mu-type opioid receptor (Rattus norvegicus, UniProt P33535)
Neuromedin-K receptor = Neuromedin-K receptor (Homo sapiens, UniProt P29371)
Protein kinase C = Protein kinase C (Drosophila melanogaster, UniProt P13678)
[8] = biological target: 5-hydroxytryptamine receptor 2C (Homo sapiens, UniProt P28335)
[9] = biological target: Sodium-dependent dopamine transporter (Homo sapiens, UniProt Q01959)
Adenosine receptor A1 = Adenosine receptor A1 (Homo sapiens, UniProt P30542)
[10] = biological target: Gamma-aminobutyric acid type B receptor subunit 1 (Homo sapiens, UniProt Q9UBS5)
Somatostatin = Somatostatin (Rattus norvegicus, UniProt P60042)
[11] = biological target: Adrenergic alpha2 receptor (Mesocricetus auratus, UniProt Q60533)
[12] = biological target: Solute carrier family 22 member 1 (Rattus norvegicus, UniProt Q63089)
GLRA1 protein = GLRA1 protein (Homo sapiens, UniProt Q14C71)
[13] = biological target: Voltage-dependent N-type calcium channel subunit alpha-1B (Rattus norvegicus, UniProt Q02294)
[14] = biological target: Sodium channel protein type 2 subunit alpha (Homo sapiens, UniProt Q99250)
[15] = biological target: Beta-2 adrenergic receptor (Mus musculus, UniProt P18762)
Substance-P receptor = Substance-P receptor (Homo sapiens, UniProt P25103)
[16] = biological target: Voltage-dependent T-type calcium channel subunit alpha-1H (Homo sapiens, UniProt O95180)
[17] = biological target: ATP-sensitive inward rectifier potassium channel 11 (Homo sapiens, UniProt Q14654)
[18] = biological target: Neuronal acetylcholine receptor subunit alpha-4 (Homo sapiens, UniProt P43681)
[19] = biological target: Chloride channel protein 1 (Homo sapiens, UniProt P35523)
[20] = biological target: Glutamate receptor ionotropic, kainate 2 (Homo sapiens, UniProt Q13002)
[21] = biological target: Potassium voltage-gated channel subfamily A member 1 (Homo sapiens, UniProt Q09470)
Substance-K receptor = Substance-K receptor (Bos taurus, UniProt P05363)
[22] = biological target: 5-hydroxytryptamine receptor 1B (Canis lupus familiaris, UniProt P79250)
[23] = biological target: Glutamate receptor ionotropic, NMDA 1 (Rattus norvegicus, UniProt P35439)
[24] = biological target: Delta-type opioid receptor (Homo sapiens, UniProt P41143)
[25] = biological target: 5-hydroxytryptamine receptor 1A (Homo sapiens, UniProt P08908)
[26] = biological target: 5-hydroxytryptamine receptor 1A/1B/1D/2C (Homo sapiens, UniProt P08908+P28221+P28222+P28335)

Measured: Ki

Chain of Acetylcholine receptor subunit alpha (P25108 whole entry): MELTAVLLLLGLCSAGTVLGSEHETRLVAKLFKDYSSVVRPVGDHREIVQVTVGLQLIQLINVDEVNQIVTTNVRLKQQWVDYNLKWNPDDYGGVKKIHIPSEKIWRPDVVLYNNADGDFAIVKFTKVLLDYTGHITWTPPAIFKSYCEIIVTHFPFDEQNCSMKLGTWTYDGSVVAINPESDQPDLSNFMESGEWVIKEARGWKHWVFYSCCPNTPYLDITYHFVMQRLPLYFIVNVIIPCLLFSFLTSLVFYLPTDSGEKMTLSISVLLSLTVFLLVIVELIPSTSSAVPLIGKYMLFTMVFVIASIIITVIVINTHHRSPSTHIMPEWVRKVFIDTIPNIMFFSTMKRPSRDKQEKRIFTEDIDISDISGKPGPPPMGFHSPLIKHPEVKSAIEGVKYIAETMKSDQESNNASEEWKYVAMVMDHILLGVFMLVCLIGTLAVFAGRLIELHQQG
Chain of Neuronal acetylcholine receptor subunit alpha-7 (P36544 whole entry): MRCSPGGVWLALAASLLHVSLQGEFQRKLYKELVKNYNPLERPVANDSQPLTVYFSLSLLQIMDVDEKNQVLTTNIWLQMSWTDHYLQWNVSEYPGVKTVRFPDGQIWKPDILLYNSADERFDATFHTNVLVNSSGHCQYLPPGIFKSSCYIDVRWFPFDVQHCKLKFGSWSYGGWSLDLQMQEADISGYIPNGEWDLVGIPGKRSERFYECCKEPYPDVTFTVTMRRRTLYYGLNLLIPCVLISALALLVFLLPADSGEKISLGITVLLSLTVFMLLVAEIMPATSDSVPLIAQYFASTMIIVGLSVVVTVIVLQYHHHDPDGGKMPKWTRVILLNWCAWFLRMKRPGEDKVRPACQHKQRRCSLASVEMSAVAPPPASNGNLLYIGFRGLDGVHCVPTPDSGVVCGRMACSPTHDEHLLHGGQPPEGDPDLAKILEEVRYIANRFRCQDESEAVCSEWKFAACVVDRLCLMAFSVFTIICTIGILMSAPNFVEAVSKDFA
Chain of Substance-P receptor (P25103 whole entry): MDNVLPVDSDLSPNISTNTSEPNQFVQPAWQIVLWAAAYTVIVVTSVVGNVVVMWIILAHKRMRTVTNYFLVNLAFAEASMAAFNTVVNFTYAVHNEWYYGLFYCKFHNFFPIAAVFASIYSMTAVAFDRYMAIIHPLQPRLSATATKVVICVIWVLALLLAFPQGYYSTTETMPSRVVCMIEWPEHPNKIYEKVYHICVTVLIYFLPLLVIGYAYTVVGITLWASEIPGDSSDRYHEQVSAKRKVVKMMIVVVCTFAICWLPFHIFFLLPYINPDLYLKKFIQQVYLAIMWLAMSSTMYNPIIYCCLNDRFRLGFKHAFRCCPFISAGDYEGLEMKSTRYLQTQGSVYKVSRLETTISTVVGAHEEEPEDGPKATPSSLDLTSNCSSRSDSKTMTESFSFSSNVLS
Chain of Adenosine receptor A2a (P29274 whole entry): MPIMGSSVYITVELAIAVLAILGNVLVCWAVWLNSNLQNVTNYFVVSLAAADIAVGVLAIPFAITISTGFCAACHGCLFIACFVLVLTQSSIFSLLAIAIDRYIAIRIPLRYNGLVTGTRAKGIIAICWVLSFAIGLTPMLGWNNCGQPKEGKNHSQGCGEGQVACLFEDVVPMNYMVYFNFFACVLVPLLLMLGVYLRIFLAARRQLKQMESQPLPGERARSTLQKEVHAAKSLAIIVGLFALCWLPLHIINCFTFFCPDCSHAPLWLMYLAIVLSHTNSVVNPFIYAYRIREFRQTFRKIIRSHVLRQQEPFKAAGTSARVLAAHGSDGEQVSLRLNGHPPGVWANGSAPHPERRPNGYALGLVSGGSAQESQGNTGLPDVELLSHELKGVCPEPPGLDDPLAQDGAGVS
Chain of Sodium-dependent dopamine transporter (Q01959 whole entry): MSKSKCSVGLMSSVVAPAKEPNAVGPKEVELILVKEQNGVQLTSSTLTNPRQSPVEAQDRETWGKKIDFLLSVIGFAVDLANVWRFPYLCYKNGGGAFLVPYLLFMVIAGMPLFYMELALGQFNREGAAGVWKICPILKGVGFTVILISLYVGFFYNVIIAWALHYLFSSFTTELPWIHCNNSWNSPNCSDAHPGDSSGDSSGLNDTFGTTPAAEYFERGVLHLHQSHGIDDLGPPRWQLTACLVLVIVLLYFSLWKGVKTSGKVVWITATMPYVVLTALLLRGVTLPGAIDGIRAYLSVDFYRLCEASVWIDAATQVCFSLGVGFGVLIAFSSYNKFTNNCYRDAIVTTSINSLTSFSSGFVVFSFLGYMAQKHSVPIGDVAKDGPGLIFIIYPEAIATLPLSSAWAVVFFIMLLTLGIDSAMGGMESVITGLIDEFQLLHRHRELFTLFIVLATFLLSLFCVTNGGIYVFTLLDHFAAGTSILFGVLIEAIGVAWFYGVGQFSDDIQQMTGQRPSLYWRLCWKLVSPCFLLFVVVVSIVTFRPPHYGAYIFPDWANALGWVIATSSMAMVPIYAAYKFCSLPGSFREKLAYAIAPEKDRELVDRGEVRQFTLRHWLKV
Chain of Protein kinase C (P13678 whole entry): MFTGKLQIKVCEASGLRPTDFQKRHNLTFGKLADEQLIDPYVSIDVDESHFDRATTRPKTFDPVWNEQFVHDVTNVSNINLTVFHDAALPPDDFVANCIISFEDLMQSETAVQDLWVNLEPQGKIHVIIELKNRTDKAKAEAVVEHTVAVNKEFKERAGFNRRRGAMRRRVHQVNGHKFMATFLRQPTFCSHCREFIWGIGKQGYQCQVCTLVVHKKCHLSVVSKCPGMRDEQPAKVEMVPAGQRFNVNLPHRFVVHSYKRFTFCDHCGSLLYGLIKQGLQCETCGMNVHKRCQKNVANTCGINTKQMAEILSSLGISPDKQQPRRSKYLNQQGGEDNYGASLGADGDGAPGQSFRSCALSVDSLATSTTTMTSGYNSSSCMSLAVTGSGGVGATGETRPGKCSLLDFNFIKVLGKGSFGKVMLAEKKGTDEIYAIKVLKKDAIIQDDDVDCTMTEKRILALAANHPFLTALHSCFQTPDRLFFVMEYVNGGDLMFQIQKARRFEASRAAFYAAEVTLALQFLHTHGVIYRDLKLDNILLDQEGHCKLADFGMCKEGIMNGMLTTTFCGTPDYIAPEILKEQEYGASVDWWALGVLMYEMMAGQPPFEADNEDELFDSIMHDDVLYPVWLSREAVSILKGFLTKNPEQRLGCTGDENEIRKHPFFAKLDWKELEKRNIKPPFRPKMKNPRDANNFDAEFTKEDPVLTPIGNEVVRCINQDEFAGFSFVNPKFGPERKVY
Chain of Adrenergic alpha2 receptor (Q60533 whole entry): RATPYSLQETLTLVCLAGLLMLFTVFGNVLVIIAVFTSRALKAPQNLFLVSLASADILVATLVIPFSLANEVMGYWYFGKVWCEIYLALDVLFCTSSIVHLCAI
Chain of Solute carrier family 22 member 1 (Q63089 whole entry): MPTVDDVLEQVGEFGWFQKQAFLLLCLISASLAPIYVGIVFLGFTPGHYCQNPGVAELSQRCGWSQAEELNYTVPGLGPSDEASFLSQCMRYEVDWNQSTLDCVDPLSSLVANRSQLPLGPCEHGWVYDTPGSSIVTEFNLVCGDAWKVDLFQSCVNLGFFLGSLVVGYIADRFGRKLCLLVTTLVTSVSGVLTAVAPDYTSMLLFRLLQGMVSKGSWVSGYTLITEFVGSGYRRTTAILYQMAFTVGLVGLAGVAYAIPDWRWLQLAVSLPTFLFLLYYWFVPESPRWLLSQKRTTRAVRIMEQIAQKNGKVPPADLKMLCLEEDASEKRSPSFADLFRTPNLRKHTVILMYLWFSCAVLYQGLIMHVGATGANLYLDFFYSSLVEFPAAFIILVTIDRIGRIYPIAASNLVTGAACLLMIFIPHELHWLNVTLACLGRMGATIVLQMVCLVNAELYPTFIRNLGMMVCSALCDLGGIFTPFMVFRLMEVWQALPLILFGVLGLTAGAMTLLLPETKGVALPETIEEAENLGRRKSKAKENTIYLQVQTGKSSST
Chain of Beta-2 adrenergic receptor (P18762 whole entry): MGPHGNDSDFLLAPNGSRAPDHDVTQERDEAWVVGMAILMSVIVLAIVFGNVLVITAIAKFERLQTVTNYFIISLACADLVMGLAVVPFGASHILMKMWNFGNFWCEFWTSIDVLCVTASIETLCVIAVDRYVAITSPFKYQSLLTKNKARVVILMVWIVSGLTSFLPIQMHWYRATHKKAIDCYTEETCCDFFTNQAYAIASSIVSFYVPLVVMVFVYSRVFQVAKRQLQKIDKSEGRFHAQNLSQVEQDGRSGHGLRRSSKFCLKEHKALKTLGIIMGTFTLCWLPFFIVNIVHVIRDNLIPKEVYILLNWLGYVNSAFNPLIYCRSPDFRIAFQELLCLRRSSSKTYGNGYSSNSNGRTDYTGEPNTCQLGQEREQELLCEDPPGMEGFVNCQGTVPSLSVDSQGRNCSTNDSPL
Chain of Mu-type opioid receptor (P33535 whole entry): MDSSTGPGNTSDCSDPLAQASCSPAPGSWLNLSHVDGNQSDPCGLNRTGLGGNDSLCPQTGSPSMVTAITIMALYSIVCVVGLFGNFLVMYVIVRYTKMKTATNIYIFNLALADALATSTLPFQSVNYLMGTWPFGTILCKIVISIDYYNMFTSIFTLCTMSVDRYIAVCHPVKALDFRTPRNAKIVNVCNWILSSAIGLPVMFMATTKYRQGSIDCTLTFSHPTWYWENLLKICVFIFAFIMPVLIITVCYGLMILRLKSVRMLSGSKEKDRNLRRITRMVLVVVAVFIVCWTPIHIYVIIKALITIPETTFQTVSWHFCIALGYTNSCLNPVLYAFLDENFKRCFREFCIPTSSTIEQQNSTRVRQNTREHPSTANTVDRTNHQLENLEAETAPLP
Chain of Putative choline uptake ABC transporter permease protein (Q92V96 whole entry): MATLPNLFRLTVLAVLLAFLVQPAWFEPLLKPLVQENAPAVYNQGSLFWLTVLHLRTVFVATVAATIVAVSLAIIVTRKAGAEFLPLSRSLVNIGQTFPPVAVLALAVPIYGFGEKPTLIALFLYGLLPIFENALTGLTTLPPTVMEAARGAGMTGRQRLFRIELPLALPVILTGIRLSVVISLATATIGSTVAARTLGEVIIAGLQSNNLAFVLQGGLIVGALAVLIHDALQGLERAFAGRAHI

CN1CCC[C@H]1c1cccnc1 [(R,S)-nicotine]
> 10 µM: [1]

c1cncc(OC[C@@H]2CCN2)c1
0.384 µM and 0.314 µM: [1]
1.27 µM and 0.148 µM: [6]
0.04 nM: [18]
> 10 µM: [2] | Beta-nerve growth factor | Glutamate receptor 3 | Adenosine receptor A2a | Apamin | D(2) dopamine receptor | [3] | [4] | [5] | [7] | Mu-type opioid receptor | Neuromedin-K receptor | Protein kinase C | [8] | [9] | Adenosine receptor A1 | [10] | Somatostatin | [11] | [12] | GLRA1 protein | [13] | [14] | [15] | Substance-P receptor | [16] | [17] | [19] | [20] | [21] | Substance-K receptor | [22] | [23] | [24] | [25] | [26]
